Among the data in patent publication US20240174671A1, “New 2,3-Dihydro-1H-pyrrolo[3,2-b]pyridine Derivatives as Sigma Ligands” (ACONDICIONAMIENTO TARRASENSE, priority 2021, published 2024) are Ki values, retold here.

Like-named read-outs stand apart in the source and are kept apart here.

The target in one test is T1, human σ1 receptor (Homo sapiens, UniProt Q99720).
T1 construct: expressed in transfected cells; host or cells: HEK-293
Briefly: Human σ1 receptor radioligand assay ([3H](+)-pentazocine). Format: binding. The method, then: Human σ1 Receptor Radioligand Assay
(§1) NBS (non-specific binding) was measured by adding 10 μM haloperidol. The binding of the test compound was measured at either one concentration (% inhibition at 1 or 10 µM) or five different concentrations to determine affinity values (Ki). Plates were incubated at 37° C. for 120 minutes. After the incubation period, the reaction mix was then transferred to MultiScreen HTS, FC plates (Millipore), filtered and plates were washed 3 times with ice-cold 10 mM Tris-HCL (pH7.4). Filters were dried and counted at approximately 40% efficiency in a MicroBeta scintillation counter (Perkin-Elmer) using EcoScint liquid scintillation cocktail.

In another test the target is T2, human σ2/TMEM97 receptor (Homo sapiens, UniProt Q5BJF2).
T2 construct: expressed in transfected cells; host or cells: HEK-293
Description: Binding assay to human σ2/TMEM97 receptor ([3H]-DTG). The note with it: transfected HEK-293 membranes, 10 nM [3H]-DTG, 25° C., 120 minutes; read-out: Binding σ-[…] (binding to σ2-receptor expressed as Ki). The method, then:
Binding Assay to Human σ2/TMEM97 Receptor.
as §1, with “Transfected HEK-293 membranes (15 μg) were incubated with 10 nM [^3H]-1,3-Di-o-tolylguanidine (DTG) in assay buffer containing Tris-HCl 50 mM at pH 8.0. NSB” for “NBS”, “25°” for “37°”, “was” for “was then”, “and” for “and plates were”, “(pH 8.0).” for “(pH7.4).”

Where [1] appears, read: transfected HEK-293 membranes, 5 nM [3H](+)-pentazocine, 37° C., 120 minutes, read-out: Binding σ-[…] (binding to σ1-receptor expressed as Ki).

T2 sequence (Q5BJF2 whole entry): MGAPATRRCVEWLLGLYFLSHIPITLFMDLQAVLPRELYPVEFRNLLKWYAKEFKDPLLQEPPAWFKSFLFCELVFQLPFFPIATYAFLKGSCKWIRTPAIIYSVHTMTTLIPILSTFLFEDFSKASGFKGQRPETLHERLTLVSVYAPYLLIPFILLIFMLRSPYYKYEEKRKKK
T1 sequence (Q99720 whole entry): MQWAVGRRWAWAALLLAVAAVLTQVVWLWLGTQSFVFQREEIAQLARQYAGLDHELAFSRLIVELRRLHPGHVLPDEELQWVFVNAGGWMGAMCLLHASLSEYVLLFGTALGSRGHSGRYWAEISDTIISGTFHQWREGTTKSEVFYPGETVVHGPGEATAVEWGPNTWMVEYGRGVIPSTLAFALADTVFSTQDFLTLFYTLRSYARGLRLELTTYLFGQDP

For orientation: Ki means a dissociation constant, usually derived from enzyme kinetics or from competition with a known ligand. For `Cc1ccc2c(n1)C(C)(C)CN2C(=O)NC1CCN(Cc2ccccc2)CC1` [Example 1, N-(1-benzylpiperidin-4-yl)-3,3,5-trimethyl-2,3-dihydro-1H-pyrrolo[3,2-b]pyridine-1-carboxamide], the results for the inhibitory constant (Ki) on human σ1 receptor (setting [1]) and on human σ2/TMEM97 receptor were < 0.1 µM and > 1 µM, respectively. In the case of `Cc1ccc2c(n1)C(C)(C)CN2C(=O)NCC(c1ccccc1)N(C)C` (centres unmarked) [Example 2, N-(2-(dimethylamino)-2-phenylethyl)-3,3,5-trimethyl-2,3-dihydro-1H-pyrrolo[3,2-b]pyridine-1-carboxamide], the inhibitory constant (Ki) at human σ1 receptor is < 0.1 µM; at human σ2/TMEM97 receptor, > 1 µM.

As to `CN(C)C(CNC(=O)N1CC(C)(C)c2nc(C(F)(F)F)ccc21)c1ccccc1` (centres unmarked) [Example 3, N-(2-(dimethylamino)-2-phenylethyl)-3,3-dimethyl-5-(trifluoromethyl)-2,3-dihydro-1H-pyrrolo[3,2-b]pyridine-1-carboxamide], the results for the Ki at human σ1 receptor (setting [1]) and at human σ2/TMEM97 receptor were 0.1 to 0.5 µM and > 1 µM, respectively. Turning to `Cc1ccc2c(n1)C(C)(C)CN2C(=O)NC[C@@H](c1ccccc1)N(C)C` [Example 4, (R)—N-(2-(dimethylamino)-2-phenylethyl)-3,3,5-trimethyl-2,3-dihydro-1H-pyrrolo[3,2-b]pyridine-1-carboxamide], the Ki at human σ1 receptor is < 0.1 µM; at human σ2/TMEM97 receptor, > 1 µM. As to `CN(C)[C@@H](CNC(=O)N1CC(C)(C)c2ncccc21)c1ccccc1` [Example 5, (R)—N-(2-(dimethylamino)-2-phenylethyl)-3,3-dimethyl-2,3-dihydro-1H-pyrrolo[3,2-b]pyridine-1-carboxamide], the Ki on human σ1 receptor (setting [1]) was 0.1 to 0.5 µM; on human σ2/TMEM97 receptor it was > 1 µM. For `Cc1ccc2c(n1)CCN2C(=O)NC[C@@H](c1ccccc1)N(C)C` [Example 6, (R)—N-(2-(dimethylamino)-2-phenylethyl)-5-methyl-2,3-dihydro-1H-pyrrolo[3,2-t]pyridine-1-carboxamide], the figures for the Ki on human σ1 receptor (setting [1]) and on human σ2/TMEM97 receptor were 0.5 to 1 µM and > 1 µM, respectively.

Take `Cc1ccc2c(n1)C(C)(C)CN2C(=O)NCC(c1ccccc1)N1CCCC1` (centres unmarked) [Example 7, 3,3,5-trimethyl-N-(2-phenyl-2-(pyrrolidin-1-yl)ethyl)-2,3-dihydro-1H-pyrrolo[3,2-b]pyridine-1-carboxamide]: the inhibition constant (Ki) on human σ1 receptor (setting [1]) was 0.1 to 0.5 µM; on human σ2/TMEM97 receptor, > 1 µM. With `Cc1ccc2c(n1)C(C)(C)CN2C(=O)N(C)C[C@@H](c1ccccc1)N(C)C` [Example 8, (R)—N-(2-(dimethylamino)-2-phenylethyl)-N,3,3,5-tetramethyl-2,3-dihydro-1H-pyrrolo[3,2-b]pyridine-1-carboxamide], the Ki was 0.5 to 1 µM on human σ1 receptor (setting [1]) and > 1 µM at human σ2/TMEM97 receptor. As for `CCN(CC)C(CNC(=O)N1CC(C)(C)c2nc(C)ccc21)c1ccccc1` (centres unmarked) [Example 9, N-(2-(diethylamino)-2-phenylethyl)-3,3,5-trimethyl-2,3-dihydro-1H-pyrrolo[3,2-b]pyridine-1-carboxamide], the Ki is < 0.1 µM at human σ1 receptor (setting [1]) and > 1 µM at human σ2/TMEM97 receptor. Regarding `Cc1ccc2c(n1)C(C)(C)CN2C(=O)N1CCN(Cc2ccccc2)CC1` [Example 10, (4-benzylpiperazin-1-yl)(3,3,5-trimethyl-2,3-dihydro-1H-pyrrolo[3,2-b]pyridin-1-yl)methanone], the results for the Ki at human σ1 receptor (setting [1]) and at human σ2/TMEM97 receptor were 0.1 to 0.5 µM and > 1 µM, respectively. As for `Cc1ccc2c(n1)C(C)(C)CN2C(=O)N1CCC(N(C)Cc2ccccc2)CC1` [Example 11, (4-(benzyl(methyl)amino)piperidin-1-yl)(3,3,5-trimethyl-2,3-dihydro-1H-pyrrolo[3,2-b]pyridin-1-yl)methanone], the figures for the Ki on human σ1 receptor (setting [1]) and on human σ2/TMEM97 receptor were 0.1 to 0.5 µM and < 0.1 µM, respectively. In the case of `Cc1ccc2c(n1)C(C)(C)CN2C(=O)NC[C@H](Cc1ccccc1)N(C)C` [Example 12, (S)—N-(2-(dimethylamino)-3-phenylpropyl)-3,3,5-trimethyl-2,3-dihydro-1H-pyrrolo[3,2-b]pyridine-1-carboxamide], the Ki was < 0.1 µM on human σ1 receptor and > 1 µM at human σ2/TMEM97 receptor. Regarding `COc1ccc(C(CNC(=O)N2CC(C)(C)c3nc(C)ccc32)N(C)C)cc1` (centres unmarked) [Example 13, N-(2-(dimethylamino)-2-(4-methoxyphenyl)ethyl)-3,3,5-trimethyl-2,3-dihydro-1H-pyrrolo[3,2-b]pyridine-1-carboxamide], the figures for the Ki at human σ1 receptor and at human σ2/TMEM97 receptor were < 0.1 µM and > 1 µM, respectively.

Consider `CN(C)[C@@H](CNC(=O)N1CC(C)(C)c2ncc(Cl)cc21)c1ccccc1` [Example 14, (R)-6-chloro-N-(2-(dimethylamino)-2-phenylethyl)-3,3-dimethyl-2,3-dihydro-1H-pyrrolo[3,2-b]pyridine-1-carboxamide], for which the results for the Ki at human σ1 receptor (setting [1]) and on human σ2/TMEM97 receptor were 0.1 to 0.5 µM and > 1 µM, respectively. As to `CN(C)[C@@H](CNC(=O)N1CC(C)(C)c2nc(C#N)ccc21)c1ccccc1` [Example 15, (R)-5-cyano-N-(2-(dimethylamino)-2-phenylethyl)-3,3-dimethyl-2,3-dihydro-1H-pyrrolo[3,2-b]pyridine-1-carboxamide], the Ki was < 0.1 µM on human σ1 receptor and > 1 µM at human σ2/TMEM97 receptor. `Cc1nc2c(cc1F)N(C(=O)NC[C@@H](c1ccccc1)N(C)C)CC2(C)C` [Example 16, (R)—N-(2-(dimethylamino)-2-phenylethyl)-6-fluoro-3,3,5-trimethyl-2,3-dihydro-1H-pyrrolo[3,2-b]pyridine-1-carboxamide]: the Ki was < 0.1 µM at human σ1 receptor (setting [1]) and > 1 µM on human σ2/TMEM97 receptor. Taken in the same sequence, the figures for `COc1ccc2c(n1)C(C)(C)CN2C(=O)NC[C@@H](c1ccccc1)N(C)C` [Example 17, (R)—N-(2-(dimethylamino)-2-phenylethyl)-5-methoxy-3,3-dimethyl-2,3-dihydro-1H-pyrrolo[3,2-b]pyridine-1-carboxamide] were < 0.1 µM and > 1 µM. Consider `Cc1ccc2c(n1)C(C)(C)CN2C(=O)N[C@@H]1CCN(Cc2ccccc2)C1` [Example 18, (R)—N-(1-benzylpyrrolidin-3-yl)-3,3,5-trimethyl-2,3-dihydro-1H-pyrrolo[3,2-b]pyridine-1-carboxamide], for which the Ki at human σ1 receptor (setting [1]) and on human σ2/TMEM97 receptor was 0.1 to 0.5 µM each time. With `Cc1ccc2c(n1)C(C)(C)CN2C(=O)NCC(c1ccccc1F)N(C)C` (centres unmarked) [Example 19, N-(2-(dimethylamino)-2-(2-fluorophenyl)ethyl)-3,3,5-trimethyl-2,3-dihydro-1H-pyrrolo[3,2-b]pyridine-1-carboxamide], the figures for the Ki on human σ1 receptor (setting [1]) and on human σ2/TMEM97 receptor were 0.1 to 0.5 µM and > 1 µM, respectively. Consider `CN(C)[C@@H](CNC(=O)N1CC(C)(C)c2ncc(F)cc21)c1ccccc1` [Example 20, (R)—N-(2-(dimethylamino)-2-phenylethyl)-6-fluoro-3,3-dimethyl-2,3-dihydro-1H-pyrrolo[3,2-b]pyridine-1-carboxamide], for which the Ki at human σ1 receptor (setting [1]) was < 0.1 µM; at human σ2/TMEM97 receptor, > 1 µM. As to `Cc1ccc2c(n1)C(C)(C)CN2C(=O)N[C@H]1CCN(Cc2ccccc2)C1` [Example 21, (S)—N-(1-benzylpyrrolidin-3-yl)-3,3,5-trimethyl-2,3-dihydro-1H-pyrrolo[3,2-b]pyridine-1-carboxamide], the Ki on human σ1 receptor (setting [1]) was 0.1 to 0.5 µM; on human σ2/TMEM97 receptor, > 1 µM. The corresponding values for `Cc1ccc2c(n1)C(C)(C)CN2C(=O)NC1CCN(Cc2ccc(F)cc2)CC1` [Example 22, N-(1-(4-fluorobenzyl)piperidin-4-yl)-3,3,5-trimethyl-2,3-dihydro-1H-pyrrolo[3,2-b]pyridine-1-carboxamide] are < 0.1 µM and 0.5 to 1 µM.

As for `Cc1ccc2c(n1)C(C)(C)CN2C(=O)NC1CCN(Cc2cccc(C#N)c2)CC1` [Example 23, N-(1-(3-cyanobenzyl)piperidin-4-yl)-3,3,5-trimethyl-2,3-dihydro-1H-pyrrolo[3,2-b]pyridine-1-carboxamide], the figures for the Ki at human σ1 receptor (setting [1]) and on human σ2/TMEM97 receptor were 0.1 to 0.5 µM and > 1 µM, respectively. Consider `Cc1ccc2c(n1)C(C)(C)CN2C(=O)NC1CCN(Cc2ccc(C#N)cc2)CC1` [Example 24, N-(1-(4-cyanobenzyl)piperidin-4-yl)-3,3,5-trimethyl-2,3-dihydro-1H-pyrrolo[3,2-b]pyridine-1-carboxamide], for which the Ki at human σ1 receptor (setting [1]) is < 0.1 µM; at human σ2/TMEM97 receptor it was > 1 µM.

`Cc1ccc2c(n1)C(C)(C)CN2C(=O)NC1CCN(CCC(C)C)CC1` [Example 25, N-(1-isopentylpiperidin-4-yl)-3,3,5-trimethyl-2,3-dihydro-1H-pyrrolo[3,2-b]pyridine-1-carboxamide]: the Ki on human σ1 receptor (setting [1]) was < 0.1 µM; at human σ2/TMEM97 receptor, 0.1 to 0.5 µM. Taken in the same sequence, the figures for `Cc1ccc2c(n1)C(C)(C)CN2C(=O)NC1CCN(Cc2cccc(F)c2)CC1` [Example 26, N-(1-(3-fluorobenzyl)piperidin-4-yl)-3,3,5-trimethyl-2,3-dihydro-1H-pyrrolo[3,2-b]pyridine-1-carboxamide] were < 0.1 µM and > 1 µM. Regarding `CC1(C)CN(C(=O)NC2CCN(Cc3ccccc3)CC2)c2ccc(C#N)nc21` [Example 30, N-(1-benzylpiperidin-4-yl)-5-cyano-3,3-dimethyl-2,3-dihydro-1H-pyrrolo[3,2-b]pyridine-1-carboxamide], the inhibition constant (Ki) on human σ1 receptor (setting [1]) is < 0.1 µM.
